Patent US8759342B2, “Benzo[1,4]oxazin-3-one, benzo[1,4]thiazin-3-one and quinolin-2-one urotensin II receptor antagonists” (Janssen Pharmaceutica NV, priority 2006, dated 2014)
Like-named read-outs stand apart in the source and are kept apart here.

Experiments:
Human UII receptors = target: T1, Human UII receptors (Homo sapiens, UniProt Q9UKP6); assay: Human radioligand binding assay, (125I)-U-II on HSMM
T1 construct: host or cells: Human Skeletal Muscle Myoblasts (HSMM), intact adherent cells
T1 sequence (Q9UKP6 1-389): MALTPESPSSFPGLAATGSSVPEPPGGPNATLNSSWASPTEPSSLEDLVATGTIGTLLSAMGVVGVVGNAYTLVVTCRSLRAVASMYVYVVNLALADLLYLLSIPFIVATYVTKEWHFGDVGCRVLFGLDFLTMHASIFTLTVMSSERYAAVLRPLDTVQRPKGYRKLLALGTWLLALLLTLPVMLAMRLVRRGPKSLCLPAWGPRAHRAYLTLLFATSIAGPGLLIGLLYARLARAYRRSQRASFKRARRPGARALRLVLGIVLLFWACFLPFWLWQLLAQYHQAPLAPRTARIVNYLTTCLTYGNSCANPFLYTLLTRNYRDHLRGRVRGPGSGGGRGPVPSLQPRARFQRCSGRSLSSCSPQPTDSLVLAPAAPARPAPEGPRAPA
Procedure: Human Skeletal Muscle Myoblasts (HSMM) were obtained from Cambrex, and were cultured according to manufacturer's instruction. Cell viability was examined by trypan blue exclusion. Cells at less than 4 passages were used in all studies. […] The binding medium used was Dulbecco's modified Eagle's medium (DMEM) containing 2 mg/ml BSA and 25 mM HEPES (pH 7.4). […] The cells were washed 4× with the binding medium and solubilized in 1% SDS and 0.5 N NaOH. Radioactivity was quantified by gamma counting.

[1] = target: T2, rat GPR14 (U-II receptor) (Rattus norvegicus, UniProt P49684); assay: Calcium flux assay (FLIPR); type: cell-based; conditions: Inhibition of acetyl-cyclic[Cys-Phe-Trp-Lys-(2-Nal)-Cys]-NH2 (1 nM) induced Ca2+ mobilization (FLIPR) in CHO cells transfected with rat UII receptor; 5 min incubation
T2 construct: expressed in transfected cells
T2 sequence (P49684 1-386): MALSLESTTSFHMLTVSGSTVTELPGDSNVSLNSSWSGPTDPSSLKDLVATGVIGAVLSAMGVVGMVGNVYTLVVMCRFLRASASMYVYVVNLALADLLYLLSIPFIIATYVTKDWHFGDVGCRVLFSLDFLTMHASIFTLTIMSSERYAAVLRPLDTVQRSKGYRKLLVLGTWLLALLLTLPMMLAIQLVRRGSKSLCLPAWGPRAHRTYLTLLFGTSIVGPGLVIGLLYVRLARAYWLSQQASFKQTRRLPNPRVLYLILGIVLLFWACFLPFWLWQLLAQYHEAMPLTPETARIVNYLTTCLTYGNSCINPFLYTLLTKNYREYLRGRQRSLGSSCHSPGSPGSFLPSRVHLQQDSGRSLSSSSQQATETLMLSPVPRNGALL
Outline: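 Stable CHO cell line expressing cloned rat U-II receptor, seeded 24 h before assay, loaded with FLIPR calcium dye in HBSS/20 mM HEPES/0.1% BSA/2.5 mM probenecid, pH 7.4, for 1 hr at 37° C. Calcium mobilization read at room temperature (23° C.).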

[2] = 0.150 nM (125I)-U-II, intact Human Skeletal Muscle Myoblasts, 3 hrs, 25° C., read-out: Ki

Row | Structure (SMILES) | Ki (Human UII receptors; [2]) [nM] | IC50 [1] [nM] | Ki (Human UII receptors) [nM]
1 | O=C(NCCc1c[nH]c2ccccc12)c1ccccc1C1CCN(CCN2C(=O)COc3ccccc32)CC1 [Cpd 26, N-[2-(1H-indol-3-yl)-ethyl]-2-{1-[2-(3-oxo-2,3-dihydro-benzo[1,4]oxazin-4-yl)-ethyl]-piperidin-4-yl}-benzamide] | 750 | 2000 | 
2 | O=C(NCC1CCN(S(=O)(=O)Cc2ccccc2)CC1)c1cc(Cl)ccc1C1CCN(CCN2C(=O)COc3ccccc32)CC1 [Cpd 72, 5-chloro-2-{1-[2-(3-oxo-2,3-dihydro-benzo[1,4]oxazin-4-yl)-ethyl]-piperidin-4-yl}-N-(1-phenylmethanesulfonyl-piperidin-4-ylmethyl)-benzamide] | 30 | 53 | 
3 | CC(C)(C)CC(=O)NCCCCCNC(=O)c1cc(Cl)ccc1C1CCN(CCN2C(=O)COc3ccccc32)CC1 [Cpd 76, 5-chloro-N-[5-(3,3-dimethyl-butyrylamino)-pentyl]-2-{1-[2-(3-oxo-2,3-dihydro-benzo[1,4]oxazin-4-yl)-ethyl]-piperidin-4-yl}-benzamide] |  | 150 | 43
4 | O=C(NCCCCNC(=O)c1cc(Cl)ccc1C1CCN(CCN2C(=O)COc3ccccc32)CC1)OCc1ccccc1 [Cpd 69, [4-(5-chloro-2-{1-[2-(3-oxo-2,3-dihydro-benzo[1,4]oxazin-4-yl)-ethyl]-piperidin-4-yl}-benzoylamino)-butyl]-carbamic acid benzyl ester] | 62 | 150 | 
5 | O=C(NCCCCCNC(=O)c1cc(Cl)ccc1C1CCN(CCN2C(=O)COc3ccccc32)CC1)NCc1ccccc1 [Cpd 77, N-[5-(3-benzyl-ureido)-pentyl]-5-chloro-2-{1-[2-(3-oxo-2,3-dihydro-benzo[1,4]oxazin-4-yl)-ethyl]-piperidin-4-yl}-benzamide] | 37 | 27 | 
6 | CC(C)(C)OC(=O)N1CCC(CCNC(=O)c2cc(Cl)ccc2C2CCN(CCN3C(=O)COc4ccccc43)CC2)CC1 [Cpd 68, 4-[2-(5-chloro-2-{1-[2-(3-oxo-2,3-dihydro-benzo[1,4]oxazin-4-yl)-ethyl]-piperidin-4-yl}-benzoylamino)-ethyl]-piperidine-1-carboxylic acid tert-butyl ester] | 47 | 100 | 
7 | CC(C)(C)OC(=O)NCCCCCNC(=O)c1ccccc1[C@@H]1C[C@H]2CC[C@@H](C1)N2CCN1C(=O)COc2ccccc21 [Cpd 98, [5-(2-{8-[2-(3-oxo-2,3-dihydro-benzo[1,4]oxazin-4-yl)-ethyl]-8-aza-bicyclo[3.2.1]oct-3-yl}-benzoylamino)-pentyl]-carbamic acid tert-butyl ester] | 1400 | 1600 | 
8 | CC(C)(C)OC(=O)NCCCCNC(=O)c1cc(Cl)ccc1C1CCN(CCN2C(=O)COc3ccccc32)CC1 [Cpd 60, [4-(5-chloro-2-{1-[2-(3-oxo-2,3-dihydro-benzo[1,4]oxazin-4-yl)-ethyl]-piperidin-4-yl}-benzoylamino)-butyl]-carbamic acid tert-butyl ester] | 150 | 500 | 
9 | CC(C)(C)OC(=O)N1CCC(CNC(=O)c2ccccc2C2CCN(CCN3C(=O)COc4ccccc43)CC2)CC1 [Cpd 50, 4-[(2-{1-[2-(3-oxo-2,3-dihydro-benzo[1,4]oxazin-4-yl)-ethyl]-piperidin-4-yl}-benzoylamino)-methyl]-piperidine-1-carboxylic acid tert-butyl ester] | 430 | 2500 | 
10 | CC(C)(C)OC(=O)NCCCCCNC(=O)c1cc(Cl)ccc1C1CCN(CCN2C(=O)COc3ccccc32)CC1 [Cpd 70, [5-(5-chloro-2-{1-[2-(3-oxo-2,3-dihydro-benzo[1,4]oxazin-4-yl)-ethyl]-piperidin-4-yl}-benzoylamino)-pentyl]-carbamic acid tert-butyl ester] | 25 | 32 | 
11 | CC(C)(C)OC(=O)NCCCCCNC(=O)c1cc(Cl)ccc1C1CC2CCC(C1)N2CCN1C(=O)COc2ccccc21 (centres unmarked) [Cpd 100, [5-(5-chloro-2-{8-[2-(3-oxo-2,3-dihydro-benzo[1,4]oxazin-4-yl)-ethyl]-8-aza-bicyclo[3.2.1]oct-3-yl}-benzoylamino)-pentyl]-carbamic acid tert-butyl ester] | 1200 | 450 | 
12 | O=C(NCCc1ccc(Br)cc1)c1ccccc1C1CCN(CCN2C(=O)COc3ccccc32)CC1 [Cpd 34, N-[2-(4-bromo-phenyl)-ethyl]-2-{1-[2-(3-oxo-2,3-dihydro-benzo[1,4]oxazin-4-yl)-ethyl]-piperidin-4-yl}-benzamide] | 620 | 3000 | 
13 | CC(C)(C)CC(=O)N1CCC(CNC(=O)c2cc(Cl)ccc2C2CCN(CCN3C(=O)COc4ccccc43)CC2)CC1 [Cpd 65, 5-chloro-N-[1-(3,3-dimethyl-butyryl)-piperidin-4-ylmethyl]-2-{1-[2-(3-oxo-2,3-dihydro-benzo[1,4]oxazin-4-yl)-ethyl]-piperidin-4-yl}-benzamide] | 32 | 330 | 
14 | CC(C)(C)OC(=O)NCCCCCNC(=O)c1cc(Cl)ccc1C1=CC2CCC(C1)N2CCN1C(=O)COc2ccccc21 (centres unmarked) [Cpd 95, [5-(5-chloro-2-{8-[2-(3-oxo-2,3-dihydro-benzo[1,4]oxazin-4-yl)-ethyl]-8-aza-bicyclo[3.2.1]oct-2-en-3-yl}-benzoylamino)-pentyl]-carbamic acid tert-butyl ester] | 1300 | 640 | 
15 | CC(C)(C)OC(=O)N1CCN(CCNC(=O)c2ccccc2C2CC3CCC(C2)N3CCN2C(=O)COc3ccccc32)CC1 (centres unmarked) [Cpd 99, 4-[2-(2-{8-[2-(3-oxo-2,3-dihydro-benzo[1,4]oxazin-4-yl)-ethyl]-8-aza-bicyclo[3.2.1]oct-3-yl}-benzoylamino)-ethyl]-piperazine-1-carboxylic acid tert-butyl ester] | 1400 | 1100 | 
16 | CC(C)(C)OC(=O)N1CCC(CNC(=O)c2cc(Cl)ccc2C2CCN(CCN3C(=O)COc4ccccc43)CC2)CC1 [Cpd 58, 4-[(5-chloro-2-{1-[2-(3-oxo-2,3-dihydro-benzo[1,4]oxazin-4-yl)-ethyl]-piperidin-4-yl}-benzoylamino)-methyl]-piperidine-1-carboxylic acid tert-butyl ester] | 140 | 600 | 
17 | CC(C)(C)OC(=O)NCCCCNC(=O)c1ccccc1C1CCN(CCN2C(=O)COc3ccccc32)CC1 [Cpd 35, [4-(2-{1-[2-(3-oxo-2,3-dihydro-benzo[1,4]oxazin-4-yl)-ethyl]-piperidin-4-yl}-benzoylamino)-butyl]-carbamic acid tert-butyl ester] | 590 | 3000 | 
18 | O=C(NCCCCCNS(=O)(=O)Cc1ccccc1)c1cc(Cl)ccc1C1CCN(CCN2C(=O)COc3ccccc32)CC1 [Cpd 78, 5-chloro-2-{1-[2-(3-oxo-2,3-dihydro-benzo[1,4]oxazin-4-yl)-ethyl]-piperidin-4-yl}-N-(5-phenylmethanesulfonylamino-pentyl)-benzamide] | 40 | 100 | 
19 | O=C(NCCc1ccc2ccccc2c1)c1ccccc1C1CCN(CCN2C(=O)COc3ccccc32)CC1 [Cpd 20, N-(2-naphthalen-2-yl-ethyl)-2-{1-[2-(3-oxo-2,3-dihydro-benzo[1,4]oxazin-4-yl)-ethyl]-piperidin-4-yl}-benzamide] | 720 | 2000 | 
20 | CC(C)(C)OC(=O)NCCCCCCNC(=O)c1cc(Cl)ccc1C1CCN(CCN2C(=O)COc3ccccc32)CC1 [Cpd 74, [6-(5-chloro-2-{1-[2-(3-oxo-2,3-dihydro-benzo[1,4]oxazin-4-yl)-ethyl]-piperidin-4-yl}-benzoylamino)-hexyl]-carbamic acid tert-butyl ester] | 100 | 45 | 
21 | O=C(NCCc1ccccc1)c1cc(Cl)ccc1C1CCN(CCN2C(=O)COc3ccccc32)CC1 [Cpd 57, 5-chloro-2-{1-[2-(3-oxo-2,3-dihydro-benzo[1,4]oxazin-4-yl)-ethyl]-piperidin-4-yl}-N-phenethyl-benzamide] | 190 | 1300 | 
22 | O=C(NCC1CCN(C(=O)OCc2ccccc2)CC1)c1cc(Cl)ccc1C1CCN(CCN2C(=O)COc3ccccc32)CC1 [Cpd 63, 4-[(5-chloro-2-{1-[2-(3-oxo-2,3-dihydro-benzo[1,4]oxazin-4-yl)-ethyl]-piperidin-4-yl}-benzoylamino)-methyl]-piperidine-1-carboxylic acid benzyl ester] | 54 | 400 | 
